Laboratory results as given in patent publication US20220152044A1, “TREATMENT OF INFLAMMATORY DISEASES OF THE CENTRAL NERVOUS SYSTEM” (PALMAYA PTY LTD, priority 2019, published 2022).

Experiments:
cocaine use = experiment: Cocaine craving in patients with naltrexone implants; format: in vivo, human; conditions: approximately 15 patients, reported by most
From the text: Approximately 15 […] patients have presented specifically for the control of their cocaine use using naltrexone implants. Approximately a third of these patients were from the United Kingdom, a third from Sydney, Australia and a third from Perth, Australia. This group of patients reported a reduction in craving with naltrexone implants, and most reported a reduction in cravings for 6-12 months after receiving the implant. Approximately half returned for repeat implants based on their observations that the naltrexone implant controlled their cravings.

PTSD = PTSD patients treated with flumazenil and/or naltrexone; format: in vivo, human; conditions: severe case, had occurred for 6 years; naltrexone implant inserted
From the text: Post Trauma Stress Disorder (PTSD), causes dysregulation of anxiety control that may damage the GABAA system and present as hypervigilance, sleep disturbance, anxiety, gastrointestinal (GIT) or bladder symptoms. We have been using flumazenil for more than 8 years to treat patients presenting complex. The infusions and implants give relief to the anxiety, sleep disturbance and the GIT symptoms as well as urinary symptoms in many well established PTSD patients.
Sleep remained normal following this. The profound recovery of sleep in patients with PTSD using flumazenil and naltrexone by continuous delivery has not previously been described.

HPA axis = HPA axis in stressed animals; format: in vivo
From the text: For this reason the combination of sustained release naltrexone and sustained release flumazenil using injections, implants or infusions would be expected to limit neuro-inflammatory diseases and their symptoms.

craving for nicotine = experiment: Nicotine craving and use in patients; format: in vivo, human; conditions: flumazenil by infusion or nasally/sublingually 50 to 200 micrograms per dose
alcohol use = experiment: Return to alcohol use on naltrexone with or without flumazenil; format: in vivo, human; conditions: naltrexone 2 ng/ml; flumazenil 40 to 160 μg/hour where combined
Method: We have observed that in this group of patients complain of increased irritability, increased anxiety, increased sleep disturbance, and/or increased aggressive behaviour. However, when administered together with flumazenil at a concentration of 40 to 160 μg/hour, these systems are controlled.
For patients with a history of relapse on naltrexone implants, the use of sustained release flumazenil with infusions initially and with a series of sustained release flumazenil implants delivering 40-160 μg/hour to sustain a concentration of 0.5 ng/ml or more appear to be useful in controlling the return to alcohol use. For example, we have shown that in women with a history of irritability and return to drinking in the premenstrual days, this treatment with sustained release flumazenil in combination with naltrexone, reduces craving and relapse patterns.

amphetamine use = experiment: Amphetamine / methamphetamine craving and withdrawal; format: in vivo, human; conditions: naltrexone implants, plasma concentration maintained at 2 ng/ml or higher
Method: In those patients that return 2-3 weeks with extreme anxiety and a desire to return to amphetamine use, the commencement of flumazenil infusions followed by a flumazenil implant that sustains a plasma concentration of flumazenil at 0.5-2 ng/ml or more decreases the cravings, including a decrease in the desire for amphetamines and allows reduction f irritability and aggression.

cannabis withdrawal = experiment: Withdrawal from cannabis with high THC concentrations; format: in vivo, human; conditions: naltrexone implants, plasma concentration 0.5 ng/ml to 10 ng/ml or more
From the text: Cannabis use has changed in recent years with a significant cohort describing high tetrahydrocannabinol (THC) concentrations in potent strains which are cultivated for their high THC content. In the patient group using these high concentrations of THC, we have noted that a group of patients give a clear cut history of extreme nausea, vomiting, anxiety changing to serious paranoid thoughts and delusions followed by psychosis over the first 3-5 days of ceasing drug use.
In a severe patient population, ondansetron may be given every 6-8 hours to assist in reducing the nausea and associated anxiety symptoms.
Our results indicated a clear reduction in anxiety, and paranoid symptoms, allowing patients who otherwise would be unable to cope with the symptoms, to cease cannabis use.

O=C1CC[C@@]2(O)[C@H]3Cc4ccc(O)c5c4[C@@]2(CCN3CC2CC2)[C@H]1O5 [naltrexone]
duration of reduction in cravings after receiving the implant (cocaine use): 6-12 months | waking at 2 am with shouting and anxiety (PTSD): stopped immediately | return of the HPA axis to normal (HPA axis): help return the HPA axis | craving for and use of nicotine (craving for nicotine): reduced craving for nicotine | return to alcohol use (alcohol use): return to drinking alcohol | craving for amphetamine use (amphetamine use): significant reduction in craving | cannabis craving and impulse control (cannabis withdrawal): reduces the craving and improves impulse control
